We go through seven compounds from patent US20250281424A1 (New York Blood Center, Inc, priority 2020, published 2025).

Each structure is given as a SMILES string.

For this assay, the target named is T1, human PF4 (Homo sapiens, UniProt P02776).
T1 construct: PF4 is a 70 amino acid, lysine-rich 7.8 kDa platelet-specific protein; made in house; host or cells: Escherichia coli BL21DE3 pLysS (pT7-7) and/or Drosophila S2 cells
T1 sequence (P02776 32-101): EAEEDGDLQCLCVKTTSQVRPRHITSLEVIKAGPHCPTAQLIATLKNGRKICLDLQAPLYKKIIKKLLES
Put plainly: Inhibition of PF4 tetramer formation (BS3 cross-linking, SDS-PAGE). To be noted: for inhibition at 5 µM: 5 μM inhibitor; for inhibition at 5 µM / inhibition at 10 µM / inhibition at 1 µM / inhibition at 3 µM: read-out: % inhibition of PF4 tetramer formation at single concentration of inhibitor; for inhibition at 10 µM: 10 μM inhibitor (column A); for IC50: read-out: IC50 of PF4 tetramer formation inhibition; for inhibition at 1 µM: 1 μM inhibitor; for inhibition at 3 µM: 3 μM inhibitor (column A). The assay is classed as biochemical. The gist of the method:
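Recombinant human wild-type PF4 (E. coli-expressed, heparin-purified), 10 μg/ml in PBS, incubated with compound 15 min at 37° C or 60 min at room temperature, then cross-linked with 0.2 mM BS3 for 30 min at room temperature. Reducing 12% SDS-PAGE; bands quantified as % tetramer, trimer, dimer, monomer versus compound-free control.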

In the case of `C[C@@H](C(=O)C1C(=O)c2ccc(S(=O)(=O)c3ccc4c(c3)C(=O)C(C(=O)[C@H](C)N(C)C(=O)OC(C)(C)C)C4=O)cc2C1=O)N(C)C(=O)OC(C)(C)C` (stereo partly drawn) [Example 156, tert-butyl N-[(2S)-1-[5-({2-[(2S)-2-{[(tert-butoxy)carbonyl](methyl)amino}propanoyl]-1,3-dioxo-2,3-dihydro-1H-inden-5-yl}sulfonyl)-1,3-dioxo-2,3-dihydro-1H-inden-2-yl]-1-oxopropan-2-yl]-N-methylcarbamate], the inhibition at 5 µM stood at 94%, the inhibition at 10 µM came to 100% and the IC50 was 6.3 µM.
On to `COCC(=O)C1C(=O)c2ccc(C(=O)c3ccc4c(c3)C(=O)C(C(=O)COC)C4=O)cc2C1=O` (stereo not drawn) [Example 234, 2-(2-methoxyacetyl)-5-[2-(2-methoxyacetyl)-1,3-dioxo-2,3-dihydro-1H-indene-5-carbonyl]-2,3-dihydro-1H-indene-1,3-dione], for which the inhibition at 1 µM was determined as 21%, the inhibition at 3 µM stood at 72% and the 50% inhibitory concentration (IC50) was found to be 1.51 µM.
Consider `O=C(Cn1cccn1)C1C(=O)c2ccc(S(=O)(=O)c3ccc4c(c3)C(=O)C(C(=O)Cn3cccn3)C4=O)cc2C1=O` (stereo not drawn) [Example 139, 5-({1,3-dioxo-2-[2-(1H-pyrazol-1-yl)acetyl]-2,3-dihydro-1H-inden-5-yl}sulfonyl)-2-[2-(1H-pyrazol-1-yl)acetyl]-2,3-dihydro-1H-indene-1,3-dione], for which the inhibition at 5 µM was found to be 87%, the inhibition at 10 µM worked out at 97% and the IC50 is 7 µM.
In the case of `C[C@@H]1CC[C@@H](C(=O)C2C(=O)c3ccc(-c4ccc5c(c4)C(=O)C(C(=O)[C@@H]4CC[C@@H](C)N4C(=O)OC(C)(C)C)C5=O)cc3C2=O)N1C(=O)OC(C)(C)C` (stereo partly drawn) [Example 214, tert-butyl (2S,5R)-2-{2′-[(2S,5R)-1-[(tert-butoxy)carbonyl]-5-methylpyrrolidine-2-carbonyl]-1,1′,3,3′-tetraoxo-1H,1′H,2H,2′H,3H,3′H-[5,5′-biindene]-2-carbonyl}-5-methylpyrrolidine-1-carboxylate], the IC50 came to 4 µM.
`CC(C)(C)OC(=O)N1CC[C@@H](C(=O)C2C(=O)c3ccc(C(=O)c4ccc5c(c4)C(=O)C(C(=O)[C@@H]4CCN(C(=O)OC(C)(C)C)C4)C5=O)cc3C2=O)C1` (stereo partly drawn) [Example 375, tert-butyl (3R)-3-(5-{2-[(3R)-1-[(tert-butoxy)carbonyl]pyrrolidine-3-carbonyl]-1,3-dioxo-2,3-dihydro-1H-indene-5-carbonyl}-1,3-dioxo-2,3-dihydro-1H-indene-2-carbonyl)pyrrolidine-1-carboxylate]: the inhibition at 1 µM amounted to 14% and the inhibition at 3 µM amounted to 32%.
For the compound `Cc1ccccc1NC(=O)C1C(=O)c2ccc(C(=O)c3ccc4c(c3)C(=O)C(C(=O)Nc3ccccc3C)C4=O)cc2C1=O` (stereo not drawn) [Example 81, N-(2-methylphenyl)-5-{2-[(2-methylphenyl)carbamoyl]-1,3-dioxo-2,3-dihydro-1H-indene-5-carbonyl}-1,3-dioxo-2,3-dihydro-1H-indene-2-carboxamide], the IC50 worked out at 4.6 µM.
Turning to `O=C(c1ccc2c(c1)C(=O)C(C(=O)CSc1ccncc1)C2=O)c1ccc2c(c1)C(=O)C(C(=O)CSc1ccncc1)C2=O` (stereo not drawn) [Example 289, 5-{1,3-dioxo-2-[2-(pyridin-4-ylsulfanyl)acetyl]-2,3-dihydro-1H-indene-5-carbonyl}-2-[2-(pyridin-4-ylsulfanyl)acetyl]-2,3-dihydro-1H-indene-1,3-dione], the inhibition at 1 µM was determined as 27% and the inhibition at 3 µM was 52%.

What is called IC50 is the concentration needed to halve the response being measured.
